The source of these data is patent EP4663635A1, “CRYSTALLINE FORM OF SULFONAMIDE DERIVATIVE AND PREPARATION METHOD THEREFOR” (Jiangsu Hengrui Pharmaceuticals Co., Ltd., priority 2023, dated 2024).

Data set [1] deals with ZR-75-1. Nature of the data set: Anti-ZR-75-1 proliferation assay (CellTiter-Glo). The class given is cell-based. The note with it: CTG assay on day 14. An excerpt:
• 1. ZR-75-1 (ATCC CRL1500) • 2. 1640 medium (Gibco, 22400-089) • 3. 0.25% trypsin-EDTA (1×) (Gibco, 25200-072) • 4. Penicillin-streptomycin (Gibco, 15140-122) • 5. DPBS (1×) (Gibco, 14190-144) • 6. FBS (Gibco, 10091148) • 7. Assay plate, 96-well, black with clear bottom (Corning, 3603) • 8. 96-well non-treated round-bottom plate (JET BIOFIL, TCP-002-096) • 9. CellTiter-Glo buffer (Promega, G756B) • 10. CellTiter-Glo substrate (Promega, G755B) • 11. Automatic cell counter (Countstar, IC1000) • 12. Thermostatic incubator (Thermo, I160) • 13. PHERAstar FS (BMG labtech, PHERAstar FS)
• a. The state of cells was observed under a microscope to make sure that the cell confluence was about 90%. • b. The cell supernatant was discarded. The cells were rinsed with DPBS once, and the DPBS was removed. The cells were digested with a proper amount of trypsin and left to stand at 37 °C for 5 min. • c. The digestion was stopped with an equal volume of 1640 medium containing 10% FBS, and the cell suspension was collected and centrifuged at 300 g for 3 min. The cells were suspended in a proper amount of fresh medium. • d. The resulting cell suspension was collected and cell counting was performed. • e. The cell suspension was diluted to 5 × 10^4 cells/mL, 50 µL/well with 1640 medium containing 10% FBS. Each well contained 2500 ZR-75-1 cells. • f. […]
Background: ATP-based viability assays read luminescence as a measure of living cells.

The target of data set [2] is T1, KAT6A (Homo sapiens, UniProt Q92794).
T1 construct: purchased Chempartner (customized)
Nature of the data set: Enzymatic activity assay KAT6 (AlphaScreen method). It is filed as biochemical. Particulars: KAT enzyme 1.25 nM, Ac-CoA 1000 nM, H3 55 nM. From the text: • 1. KAT6A (customized by Chempartner) • 2. Ovalbumin (Sigma-Aldrich, A5378-5G) • 3. 2 M Tris-HCl solution, pH 7.8, sterile (Sangon, B548140-0500) • 4. 5 M NaCl solution (Sangon, B548121-0100) • 5. EDTA (0.5 M), pH 8.0, RNase-free (Thermofisher, AM9260G) • 6. Tween-20 (Sangon, A100777-0500) • 7. DTT, 1 M (Invitrogen, P2325) • 8. Acetyl coenzyme A (Ac-CoA, CAYMAN, Cat. No. 16160) • 9. Recombinant histone H3.1 biotinylated (human) (Active Motif 31696) • 10. 384-well plate, light gray (PerkinElmer, Cat. No. 6005350) • 11. Anacardic acid (MCE, Cat. No. HY-N2020) • 12. AlphaScreen streptavidin donor beads, 5 mg (PerkinElmer, 6760002) • 13. AlphaScreen protein A acceptor beads, 5 mg (PerkinElmer, 6760137M) • 14. Acetylated-lysine antibody #9441 (CST 9441S) • 15. PHERA star microplate reader (BMG labtech)
• a. 1× assay buffer: 100 mM Tris-HCl, pH 7.8; 15 mM NaCl; 1 mM EDTA; 0.01% tween-20; 1 mM DTT; 0.01% m/v ovalbumin. • b. KAT enzyme solution: 1.25 nM (final concentration), prepared in 1× assay buffer. • c. […]
The prepared enzyme solution was added to a 384-well plate at 3 µL/well, and 3 µL of 1× assay buffer was added to each well in columns 23 and 24 (Min). […] Plate reading was performed on the microplate reader, and AlphaScreen counts were recorded. Plotting was performed using the Graphpad software, and the IC50 values of the compounds were calculated. […]

The nature of data set [3]: Hygroscopicity study of crystal forms (DVS). The note with it: for 0.0%RH-80.0%RH: DVS mass change, 25 °C; for Crystal form: crystal form after DVS test. It is filed as physicochemical. The protocol:
DVS refers to dynamic vapor sorption: The analysis was performed using SMS DVS Advantage; at 25 °C, the humidity was changed as follows: 50%-95%-0%-95%-50%, in steps of 10% (5% for the last step) (specific humidity ranges are shown in corresponding patterns, and those listed here were used in most cases); the criterion was dm/dt being not greater than 0.002%.
Surface Measurement Systems intrinsic DVS was adopted. At 25 °C, the crystal forms were tested in a humidity range of 0%-95%, with increments of 10%. The criterion was that each gradient mass change dM/dT is less than 0.002%, TMAX 360 min, two cycles.

The nature of data set [4]: Long-term/accelerated stability of crystal forms. It is filed as physicochemical. Here is the method:
Free-state samples were sealed in aluminum foil bags and left to stand in 25 °C/60% RH and 40 °C/75% RH conditions to test their stability.

Data set [5] can be described thus: Stability influencing factor study of crystal forms. The class given is physicochemical. Here is the method:
Free-state samples were spread out, left to stand in open flasks, and subjected to 30-day stability tests in light exposure (4500 Lux), high temperature (40 °C and 60 °C), and high humidity (RH 75% and RH 92.5%) conditions.

T1 sequence (Q92794 whole entry, species assumed): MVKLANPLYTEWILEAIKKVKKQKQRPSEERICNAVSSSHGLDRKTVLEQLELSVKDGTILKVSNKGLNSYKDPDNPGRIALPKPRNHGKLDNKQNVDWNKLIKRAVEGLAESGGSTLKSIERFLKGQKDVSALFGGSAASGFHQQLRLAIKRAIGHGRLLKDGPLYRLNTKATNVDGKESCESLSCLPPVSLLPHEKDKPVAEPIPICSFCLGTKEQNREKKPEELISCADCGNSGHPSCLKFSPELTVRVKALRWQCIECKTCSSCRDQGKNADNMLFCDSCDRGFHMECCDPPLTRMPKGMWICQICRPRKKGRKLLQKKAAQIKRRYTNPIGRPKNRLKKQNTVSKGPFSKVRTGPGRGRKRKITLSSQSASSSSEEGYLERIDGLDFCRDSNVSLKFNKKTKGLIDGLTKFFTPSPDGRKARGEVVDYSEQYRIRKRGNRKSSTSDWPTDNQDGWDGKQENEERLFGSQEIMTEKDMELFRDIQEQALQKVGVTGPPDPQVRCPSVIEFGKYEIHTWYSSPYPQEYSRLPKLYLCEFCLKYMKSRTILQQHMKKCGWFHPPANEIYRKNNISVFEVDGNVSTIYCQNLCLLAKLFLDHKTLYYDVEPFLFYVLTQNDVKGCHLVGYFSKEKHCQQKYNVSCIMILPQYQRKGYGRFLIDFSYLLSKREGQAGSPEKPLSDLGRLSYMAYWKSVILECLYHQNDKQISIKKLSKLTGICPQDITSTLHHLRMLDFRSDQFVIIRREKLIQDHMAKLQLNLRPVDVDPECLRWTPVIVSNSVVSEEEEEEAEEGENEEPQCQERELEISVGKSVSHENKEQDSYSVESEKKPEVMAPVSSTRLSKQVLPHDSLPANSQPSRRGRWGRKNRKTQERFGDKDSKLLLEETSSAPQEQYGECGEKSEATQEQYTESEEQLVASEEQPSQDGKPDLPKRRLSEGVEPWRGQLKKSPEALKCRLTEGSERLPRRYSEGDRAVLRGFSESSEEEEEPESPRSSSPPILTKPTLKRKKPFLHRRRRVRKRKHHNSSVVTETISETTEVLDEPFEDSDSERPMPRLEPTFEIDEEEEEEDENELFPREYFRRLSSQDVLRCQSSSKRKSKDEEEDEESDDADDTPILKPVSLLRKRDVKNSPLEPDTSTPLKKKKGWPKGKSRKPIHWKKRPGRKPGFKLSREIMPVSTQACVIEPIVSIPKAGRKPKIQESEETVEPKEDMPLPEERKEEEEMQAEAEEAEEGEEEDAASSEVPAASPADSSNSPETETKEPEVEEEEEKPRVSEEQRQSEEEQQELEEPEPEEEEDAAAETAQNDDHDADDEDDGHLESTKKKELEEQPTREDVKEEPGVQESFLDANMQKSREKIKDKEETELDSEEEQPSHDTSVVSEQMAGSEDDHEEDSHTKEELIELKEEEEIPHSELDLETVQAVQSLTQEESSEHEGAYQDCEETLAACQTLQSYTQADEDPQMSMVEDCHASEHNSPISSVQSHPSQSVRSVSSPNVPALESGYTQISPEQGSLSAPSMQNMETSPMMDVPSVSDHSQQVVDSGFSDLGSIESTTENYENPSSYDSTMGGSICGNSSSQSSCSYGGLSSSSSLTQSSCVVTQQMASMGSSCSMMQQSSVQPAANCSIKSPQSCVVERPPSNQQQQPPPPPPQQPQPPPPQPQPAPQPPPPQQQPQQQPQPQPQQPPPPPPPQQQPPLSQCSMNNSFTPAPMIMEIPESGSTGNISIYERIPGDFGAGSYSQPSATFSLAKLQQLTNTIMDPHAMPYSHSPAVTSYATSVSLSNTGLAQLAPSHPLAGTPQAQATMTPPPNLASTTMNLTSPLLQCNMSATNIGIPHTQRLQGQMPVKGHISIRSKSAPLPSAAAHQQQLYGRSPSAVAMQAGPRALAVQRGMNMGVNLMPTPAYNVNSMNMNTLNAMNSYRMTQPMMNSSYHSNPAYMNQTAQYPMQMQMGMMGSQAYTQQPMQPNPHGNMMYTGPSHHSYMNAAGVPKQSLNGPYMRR

In general, IC50 refers to the point on the concentration scale where inhibition reaches its midpoint. A low value points to greater potency in that assay. As to `COc1cccc(OC)c1S(=O)(=O)Nc1noc2cc(Cn3cccn3)c3c(c12)OCCC3` [Compound of formula 1, N-(5-((1H-pyrazol-1-yl)methyl)-3,4-dihydro-2H-chromeno[8,7-d]isoxazol-9-yl)-2,6-dimethoxybenzenesulfonamide], in data set [1], the “Maximum inhibition rate/Imax%” value is recorded as 96%. Further, the IC50 in data set [1] (Homo sapiens, ZR-75-1, 336 h) came out at 400 pM; in data set [2], 300 pM.

As to `COc1cccc(OC)c1S(=O)(=O)Nc1noc2cc(Cn3cccn3)c3c(c12)OCCC3` [Crystal form H, N-(5-((1H-pyrazol-1-yl)methyl)-3,4-dihydro-2H-chromeno[8,7-d]isoxazol-9-yl)-2,6-dimethoxybenzenesulfonamide], in data set [3], the 0.0%RH-80.0%RH was determined as 19.91% and the Crystal form entry was “No change”.

`COc1cccc(OC)c1S(=O)(=O)Nc1noc2cc(Cn3cccn3)c3c(c12)OCCC3` [Crystal form A, N-(5-((1H-pyrazol-1-yl)methyl)-3,4-dihydro-2H-chromeno[8,7-d]isoxazol-9-yl)-2,6-dimethoxybenzenesulfonamide]: the Crystal form entry in data set [4] (25 °C/60%RH), in data set [4] (40 °C/75%RH) and in data set [3] was “No change” each time. Besides, the Purity% is 99.1% in data set [4] (25 °C/60%RH, 1 month); 99.1% in data set [4] (25 °C/60%RH, 2 months); 99.1% in data set [4] (25 °C/60%RH, 3 months); 99.1% in data set [4] (25 °C/60%RH, 9 months); 99.1% in data set [4] (25 °C/60%RH, 14 days); 99.1% in data set [4] (25 °C/60%RH, Initial). The Purity% in data set [4] (40 °C/75%RH, 1 month) was 99.1%; in data set [4] (40 °C/75%RH, 2 months) it was 99.1%; in data set [4] (40 °C/75%RH, 3 months), 99.1%; in data set [4] (40 °C/75%RH, 9 months), 99.1%; in data set [4] (40 °C/75%RH, 14 days), 99.1%; in data set [4] (40 °C/75%RH, Initial), 99.1%. Also, the Purity% in data set [5] (40 °C, 5 days) was 99.1%; in data set [5] (40 °C, 10 days), 99.1%; in data set [5] (40 °C, 30 days), 99.1%; in data set [5] (60 °C, 7 days), 99.1%; in data set [5] (60 °C, 14 days) it was 99.1%; in data set [5] (60 °C, 30 days) it was 99.1%. Moreover, the Purity% in data set [5] (75% RH, 7 days) stood at 99.1%; in data set [5] (75% RH, 14 days) it was 99.1%; in data set [5] (75% RH, 30 days), 99.1%; in data set [5] (92.5% RH, 7 days) it was 99.1%; in data set [5] (92.5% RH, 14 days), 99.1%; in data set [5] (92.5% RH, 30 days), 99.1%. Also, the Purity% in data set [5] (Initial, 0 days) is 99.1%; in data set [5] (Light exposure (4500 Lux), 7 days), 99.0%; in data set [5] (Light exposure (4500 Lux), 14 days), 98.9%; in data set [5] (Light exposure (4500 Lux), 30 days) it was 98.9%. The 0.0%RH-80.0%RH in data set [3] was determined as 0.10%.
